According to the NIST ThermoML archive (doi:10.1021/je400861g):

Assay: mn = molality of the nth substance listed, in mol/kg
Conditions: 298.15 K; for surface tension liquid-gas: Ring tensiometer; for electrical conductivity: 101 kPa, Liquid, DDS-11A conductometer

CCCCCCCCCCCCCCCCn1cc[n+](C)c1.F[B-](F)(F)F [1-hexadecyl-3-methylimidazolium tetrafluoroborate] + O
Conditions	electrical conductivity [S/m]	surface tension liquid-gas [mN/m]
m1 = 3e-06	0.0022	–
m1 = 5e-06	0.0022	–
m1 = 7e-06	0.0024	–
m1 = 1e-05	–	52.9
m1 = 2e-05	–	47.9
m1 = 3e-05	–	43.8
m1 = 5e-05	0.007	38.4
m1 = 7e-05	0.0103	34.9
m1 = 0.0001	0.0142	36.7
m1 = 0.0002	0.0203	37
m1 = 0.0003	0.0265	36.4
m1 = 0.0005	0.0372	35.2
m1 = 0.0007	0.0462	35.2
m1 = 0.001	0.0593	–

CCCCCCCCCCCCCCn1cc[n+](C)c1.F[B-](F)(F)F [3-methyl-1-tetradecyl-1H-imidazol-3-ium tetrafluoroborate] + O
Conditions	electrical conductivity [S/m]	surface tension liquid-gas [mN/m]
m1 = 0.0001	–	47.9
m1 = 0.00018	–	41.9
m1 = 0.0003	0.032	39
m1 = 0.0006	0.0344	33.6
m1 = 0.001	0.036	29.9
m1 = 0.0018	0.0368	28.4
m1 = 0.003	0.0376	27.8
m1 = 0.006	0.0393	27.6
m1 = 0.01	0.0423	27.3
m1 = 0.018	0.0487	27
m1 = 0.03	0.0543	–
m1 = 0.04	0.0633	–
m1 = 0.06	0.0732	–

CCCCCCCCCCCC[n+]1ccn(C)c1.F[B-](F)(F)F [1-dodecyl-3-methylimidazolium tetrafluoroborate] + O
Conditions	electrical conductivity [S/m]	surface tension liquid-gas [mN/m]
m1 = 0.0003	0.0324	56.4
m1 = 0.0006	0.0346	50.4
m1 = 0.001	0.0379	43.1
m1 = 0.0018	0.0455	34.3
m1 = 0.003	0.0553	29.6
m1 = 0.006	0.0629	28.2
m1 = 0.008	0.064	28.3
m1 = 0.01	0.0653	28.2
m1 = 0.018	0.0712	28.3
m1 = 0.03	0.0809	28
m1 = 0.04	0.091	–
m1 = 0.06	0.11	27.7
